Data set [1] has as its system AR. Kind of data set: Mammalian two-hybrid assay hRad9 / AR in PC-3 cells. The format is cell-based, human. As to the method: PC-3, CWR22R, and LNCaP cell lines were maintained in […] supplemented with 10% fetal calf serum (FCS). Transient transfection for luciferase assays was carried out in 24-well plates (5×10^4 cells per well) using SuperFect as described previously (Lin, H. K., et al., Embo J 21:4037-48 (2002)). DNA mixtures in transfection assay were indicated in each figure. The total amount of transfected DNA was kept constant (1 μg) by adding the corresponding amounts of empty expression plasmids. After transfection, cells were cultured in […] supplemented with 5% charcoal-stripped FCS in the presence or absence of 10 nM dihydrotestosterone (DHT) for 18 h. Luciferase assays were performed as previously described (Yang, L., et al., J Biol Chem 278:16820-7 (2003)). In Western blotting assays, CWR22R or LNCaP cells were transfected by electroporation using 5×10^6 cells/0.4 ml of RPMI medium containing 2% FCS plus 9 μg of the indicated plasmids. 1 μg of EGFP expression vector was used for transfection efficiency. Electroporation was performed at 250 V and 950 μF using Gene Pulser II (Bio-Rad)

Data set [2] has as its system MAPK (GAL4-Elk1 transactivation). Kind of data set: GAL4-Elk1 reporter gene assay (MAPK activation) in MCF7 cells. The format is cell-based, human. As to the method: Cells were plated in 96-well plates and plasmids at 0.5 μg per well were transfected into cells using SuperFect (Qiagen). The medium was changed 2 h after transfection and cells were cultured in the medium containing 10% CDS-FBS or 0.2% HI-FBS for 16 h, followed by treatment with 50 ng/ml EGF, 100 ng/ml IGF-1,100 ng/ml HRG-α 0.1 nM E2, or 1 nM DHT for another 16 h. Cells were then harvested and the luciferase activity was analyzed using Dual-Luciferase Reporter Assay System (Promega). 5 ng pRL-TK per well was used as internal control.
On the technique in general: Reporter assays use an easily measured gene product as a stand-in for the process of interest.

Data set [3] concerns MAPK. The conditions noted are these: cited from earlier work.
Data set [4] relates to AR. Put plainly: AR transactivation luciferase assay in COS-1 cells with GSK3β. The data set is classed as cell-based, human. Particulars: ARE4-Luc, 10 nM DHT. On the procedure:
(§1) COS-1 and PC-3 cells were maintained in early to mid-log phase in DMEM medium, supplemented with 10% fetal bovine serum (FBS), 50 units/ml penicillin and 50 μg/ml streptormnycin in incubators with humidified air and 5% carbon dioxide at 37° C. LNCaP cells were maintained in RPMI (GIBCO/BRL) medium. Twenty-four h prior to transfection, cells washed with Hanks' buffered saline solution, trypsinized, and seeded to be a density of 40-60% confluence for transfection. Cells in 12 well plates were refed with fresh medium 2 hours before transfection and transfected according to the “SuperFect Transfection” instructions (QIAGEN). After 2-3 h incubation, cells were treated with medium supplemented with charcoal-dextran treated FBS containing either ethanol or ligands. Cells were further incubated at 37° C. for 24 h, washed with PBS, and harvested.
Target sequence in this assay (P10275 with tags, fused parts or gaps DEL79-80/DUP473-473): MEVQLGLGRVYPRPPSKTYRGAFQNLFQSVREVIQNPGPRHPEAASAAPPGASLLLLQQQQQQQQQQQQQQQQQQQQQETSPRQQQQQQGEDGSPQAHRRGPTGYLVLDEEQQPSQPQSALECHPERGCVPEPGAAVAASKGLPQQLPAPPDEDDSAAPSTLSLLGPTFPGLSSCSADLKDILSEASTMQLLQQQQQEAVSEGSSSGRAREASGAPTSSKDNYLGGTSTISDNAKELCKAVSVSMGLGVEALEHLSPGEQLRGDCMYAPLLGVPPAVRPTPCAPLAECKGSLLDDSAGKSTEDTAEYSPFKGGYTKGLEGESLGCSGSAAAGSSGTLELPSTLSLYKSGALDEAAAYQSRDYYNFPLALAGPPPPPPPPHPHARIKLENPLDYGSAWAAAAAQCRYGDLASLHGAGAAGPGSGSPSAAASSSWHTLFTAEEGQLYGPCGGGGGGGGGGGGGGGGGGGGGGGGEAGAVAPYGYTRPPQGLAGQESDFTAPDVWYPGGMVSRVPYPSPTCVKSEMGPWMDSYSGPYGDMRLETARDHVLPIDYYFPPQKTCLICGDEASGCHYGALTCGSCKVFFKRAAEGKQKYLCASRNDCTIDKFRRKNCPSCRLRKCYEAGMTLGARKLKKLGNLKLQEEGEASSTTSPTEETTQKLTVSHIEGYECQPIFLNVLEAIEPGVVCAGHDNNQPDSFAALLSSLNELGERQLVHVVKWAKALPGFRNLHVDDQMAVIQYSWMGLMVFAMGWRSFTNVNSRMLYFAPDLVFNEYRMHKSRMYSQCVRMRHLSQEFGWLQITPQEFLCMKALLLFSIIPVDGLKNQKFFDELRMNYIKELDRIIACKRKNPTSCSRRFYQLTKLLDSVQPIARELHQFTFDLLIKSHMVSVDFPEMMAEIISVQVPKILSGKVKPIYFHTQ

Data set [5] relates to AR. Put plainly: Luc reporter assay in stably transfected CWR22R cells. The format is cell-based, human. The conditions noted are these: CWR22R-S9A-GSK3β cells, doxycycline induction. On the procedure:
as §1
The S9A-GSK3β gene was inserted into pBig vector with hygromycin resistance. The S9A-GSK3β-transfected CWR22R cells were selected and maintained in RPMI medium containing 50 μg/ml hygromycin (GIBCO).

In data set [6] the test system is CWR22R cells. Kind of data set: MTT growth assay of stably transfected CWR22R cells. The format is cell-based, human. The conditions noted are these: CWR22R-S9A-GSK3β cells, 10 nM DHT, 2 μg/ml doxycycline, 5 days. On the procedure:
The MTT assay is a quantitative colorimetric assay for mammalian cell survival and proliferation. The 5×10^3 CWR22R cells were seeded in 24-well plates and incubated in RPMI medium 1640 with 5% CS-FCS for 48 h. Cells were then treated with ethanol, 10 nMDHT, and/or 2 μg/ml doxycycline for another 5 days. Then 200 μl of MTT (5 mg/ml; Sigma) was added into the each well with 1 ml of medium for 3 h at 37° C. After incubation, 2 ml of 0.04 M HCl in isopropyl alcohol was added into each well. After 5-min incubation at room temperature, the absorbance was read at a test wavelength of 570 nm.
(Formazan colour is commonly taken as a measure of viable cells.)

The test system of data set [7] is AR. Kind of data set: TSA effect on AR transactivation, reporter assay in COS-1 cells. The format is cell-based, human. The conditions noted are these: 1 nM TSA. As to the method: H1299 and COS-1 cells were maintained in Dulbecco's modified Eagle's medium (DMEM) (Life Technologies, Inc.) supplemented with 10% heat inactivated fetal bovine serum (FBS). LNCap cells were maintained in RPMI 1640 supplemented with […]. All media contain 100 units penicillin, 100 μg/ml streptomycin and 2 mM L-glutamine. Cells were seeded to a density of 50-60% confluency for transfection. In transfections where H1299 and COS-1 cells were used, the calcium phosphate precipitation method was used as described (Pan H J, et al. 1999. Endocrine 11:321-327) unless otherwise noted. […] In other reporter gene assays, where ligand treatment was required, cell culture media were changed to DMEM containing 10% charcoal-dextran-stripped FBS (CD-FBS) 2 h before transfection. After 16-18 h transfection, cells were treated with medium containing either vehicle or ligands for another 20-24 h and then cells were harvested. With LNCap cells transfection, the cells were treated with fresh RPMI 1640 containing 10% CD-FBS before transfection with SuperFect performed according to the manufacturer's protocol (Qiagen). After transfection, cells were allowed to recover in fresh RPMI 1640 containing 10% CD-FBS for 8-12 h, and then treated with either vehicle or ligands for another 20-24 h before harvesting. Each experiment was repeated at least three times.

In data set [8] the test system is COS-1 and H1299. Put plainly: TSA toxicity in transfected cells.
The subject of data set [9] is AR expression in AR^+/+ MCF7 cells. Put plainly: AR siRNA transfection of AR+/+ MCF7 cells: Ki67 immunostaining, Ki67 and c-myc mRNA, S-phase entry. The data set is classed as cell-based, human. On the procedure: All animal experimentation was conducted in accordance with accepted standards of humane animal care. Tissues were fixed in 4% paraformaldehyde for 24 h at 4° C. Paraffin-embedded tissues were sectioned (5-7 μm) onto Probe-On Plus charged slides (Fisher Scientific, Pittsburgh, Pa.). Fresh mammary gland tissues were frozen in liquid nitrogen and stored at −80° C. before RNA extraction. 3 μg of total RNA was reverse-transcribed (RT) and subjected to real-time PCR using iCycle (Bio-Rad). Primer sequences were designed by Beacon Designer II software (Bio-Rad) and the formula used were described previously (Bieche et al. 2001). β-Actin was used as an internal control.
For IHC, sections were heated at 55° C. at least 2 h, deparaffinized in xylene, rehydrated, and washed in Tris-buffered saline (TBS)/pH 8.0. For antigen retrieval, slides were microwaved in 0.01 M sodium citrate/pH 6.0, and immersed with 1% hydrogen peroxide in methanol for 30 min, then blocked with 20% normal goat serum in TBS for 60 min. After washing with PBS, sections were incubated for 90 min in different antibody of diluted 1:200 to 1:500 in TBS containing 1% bovine serum albumin (BSA), followed by goat anti-rabbit biotinylated secondary antibody diluted 1:300 in TBS containing 1% BSA. Then sections were incubated with ABC solution for 30 min, followed by development with DAB peroxidase substrate kit (Vector Laboratories) for 5 min. Slides were counterstained with hematoxylin for 30 sec, then dehydrated, cleaned in xylene, and mounted. Primary antibody was replaced with normal rabbit IgG or 1% BSA in TBS for negative controls. For BrdU labeling, BrdU reagent and BrdU staining kit were purchased from Zymed Laboratories.
A small interfering RNA was expressed in mammalian cells by transfection of a DNA-based vector BS/U6 (Sui et al. 2002) containing a homologous sequence ([…]-TAGCTAC SEQ ID NO:9), a 6-bp spacer (CTCGAG), an inverted homologous sequence ([…] SEQ ID NO:10), and 5 Ts, at the transcription initiation site of the U6 promoter. See SEQ ID NO. 11 and 12 for fall AR siRNA.

Setting [10] is: AR siRNA-transfected AR^+/+ MCF7 cells.

Data on seven molecules can be found in patent US20080050387A1, “Non-Androgen Dependent Roles for Androgen Receptor and Non-Androgen Related Inhibitors of Androgen Receptor” (priority 2003, published 2008).

For `CC(C)(O)C(=O)Nc1ccc([N+](=O)[O-])c(C(F)(F)F)c1` [HF, hydroxyflutamide, reference compound], in data set [1] (10^−5 M HF, 10^−8 M DHT), the “androgen-induced interaction between AR and hRad9” value is on record as “inhibited”.

For the molecule `N#CC(=C(/N)Sc1ccccc1N)/C(C#N)=C(\N)Sc1ccccc1N` [U0126, reference compound], in data set [2] (AR-FL-activated, pG5-luc reporter), the “AR-activated GAL4-Elk1 activity” value is “diminished”.

On to “PKKFRSLFFGSI [GAL4-FXXLF fusion peptides]”, for which the “interaction with AR” value in data set [1] (10 nM DHT) was “Androgen-dependent interactions were demonstrated”.

As for `COc1cccc(-c2cc(=O)c3ccccc3o2)c1N` [PD098059], in data set [3] (Amundadottir and Leder 1998), the “Her2/Neu-, H-Ras- or C-myc-initiated mammary tumor growth” value is given as “inhibit”. Also, in data set [3] (Niemann et al. 1998), the “mammary gland alveolar morphogenesis” value is listed as “inhibit”.

“S9A-GSK3β: constitutively active form of GSK3β”: in data set [4], the “effect on AR activity” value is listed as “strongly inhibited”. Besides, the “AR transactivation reduced by” value in [5] came out at 30%. Further, the “cell growth (MTT assay)” value in data set [6] was “obvious growth arrest”.

As to `CC(/C=C/C(=O)NO)=C\[C@@H](C)C(=O)c1ccc(N(C)C)cc1` [TSA, trichostatin A], the “DHT-induced AR transactivation” value in data set [7] is listed as “enhanced”. In addition, the “TSA concentration causing significant cell death” value in data set [8] is given as at least 10 nM. In addition, the toxic effect result in [8] (1 nM TSA) is “no obvious toxic effect”.

Consider “AR siRNA: small interfering RNA against AR expressed from the DNA-based vector BS/U6 (GGGCCCCTGGATGGATAGCTACCTCGAGGTAGCTATCCATCCAGGGGCC)”, for which the “IGF-I/EGF/HRG-α-induced MAPK activation” value in data set [2] (AR^+/+ MCF7 cells transfected with AR siRNA) is reported as “diminish”. For the same molecule, in data set [9] (setting [10]), the Ki67 immunostaining result is on record as “lower degree”, the “mRNA level of Ki67 reduced by” value is given as 42% and the “mRNA level of c-myc reduced by” value was 81%. For the same molecule, the “number of cells entering S-phase of the cell cycle” value in data set [9] (AR^+/+ MCF7 cells, IGF-I/EGF/HRG-α) is “diminish”.
